Measured values as given in patent US11478478B2, “2,3-disubstituted 1-acyl-4-amino-1,2,3,4-tetrahydroquinoline derivatives and their use as bromodomain inhibitors” (GLAXOSMITHKLINE INTELLECTUAL PROPERTY (NO.2) LIMITED, priority 2013, dated 2022).

Target: T1, BRD4 BD2 (Homo sapiens, UniProt O60885, Y97A)
T1 construct: BRD4 (1-477) (Y97A) and (Y390A); made in house; host or cells: E. coli (pET15b vector)
Assay: TR-FRET binding assay, BRD4 BD2 (BD1-mutated protein)
Conditions: read-out: pIC50 in the BRD4 BD2 assay (converted)
Method in brief: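 Displacement of Alexa Fluor647-labelled bromodomain ligand (at Kd) from 10 nM His-tagged BRD4 (1-477, Y97A) read by Eu-anti-His TR-FRET (665/615 ratio) in pH 7.4 HEPES buffer, 0.5% DMSO. Compound preincubated 30 min at rt, detection ≥30 min. pIC50 derived from four-parameter fit after normalisation to controls.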

SMILES | IC50 [nM]
CC(=O)N1c2ccc(C(=O)NCCO)cc2[C@H](Nc2ccnc(C)n2)[C@@H](C)[C@@H]1C1CC1 [Example 441, (2S,3R,4R)-1-acetyl-2-cyclopropyl-N-(2-hydroxyethyl)-3-methyl-4-((2-methylpyrimidin-4-yl)amino)-1,2,3,4-tetrahydroquinoline-6-carboxamide] | 1000 to 100000
CC(=O)N1c2ccc(C(=O)NC3CCOCC3)cc2[C@H](Nc2ccc(F)cn2)[C@@H](C)[C@@H]1C1CC1 [Example 469, (2S,3R,4R)-1-acetyl-2-cyclopropyl-4-((5-fluoropyridin-2-yl)amino)-3-methyl-N-(tetrahydro-2H-pyran-4-yl)-1,2,3,4-tetrahydroquinoline-6-carboxamide] | 100
COCCNC(=O)c1ccc2c(c1)[C@H](Nc1ccc(F)cn1)[C@@H](C)[C@H](C1CC1)N2C(C)=O [Example 471, (2S,3R,4R)-1-acetyl-2-cyclopropyl-4-((5-fluoropyridin-2-yl)amino)-N-(2-methoxyethyl)-3-methyl-1,2,3,4-tetrahydroquinoline-6-carboxamide] | 100
CC(=O)N1c2ccc(C(=O)NCCO)cc2[C@H](Nc2ccc(F)cn2)[C@@H](C)[C@@H]1C [Example 479, (2S,3R,4R)-1-acetyl-4-((5-fluoropyridin-2-yl)amino)-N-(2-hydroxyethyl)-2,3-dimethyl-1,2,3,4-tetrahydroquinoline-6-carboxamide] | 100
COCCCNC(=O)c1ccc2c(c1)[C@H](Nc1cccc(C)n1)[C@@H](C)[C@H](C1CC1)N2C(C)=O [Example 480, (2S,3R,4R)-1-acetyl-2-cyclopropyl-N-(3-methoxypropyl)-3-methyl-4-((6-methylpyridin-2-yl)amino)-1,2,3,4-tetrahydroquinoline-6-carboxamide] | 100
CC(=O)N1c2ccc(C(=O)NC3CCOCC3)cc2[C@H](Nc2ncccn2)[C@@H](C)[C@@H]1C1CC1 [Example 484, (2S,3R,4R)-1-acetyl-2-cyclopropyl-3-methyl-4-(pyrimidin-2-ylamino)-N-(tetrahydro-2H-pyran-4-yl)-1,2,3,4-tetrahydroquinoline-6-carboxamide] | 100
CC(=O)N1c2ccc(C(=O)NC3COC3)cc2[C@H](Nc2ncccn2)[C@@H](C)[C@@H]1C1CC1 [Example 488, (2S,3R,4R)-1-acetyl-2-cyclopropyl-3-methyl-N-(oxetan-3-yl)-4-(pyrimidin-2-ylamino)-1,2,3,4-tetrahydroquinoline-6-carboxamide] | 100
COCCNC(=O)c1ccc2c(c1)[C@H](Nc1ncccn1)[C@@H](C)[C@H](C1CC1)N2C(C)=O [Example 489, (2S,3R,4R)-1-acetyl-2-cyclopropyl-N-(2-methoxyethyl)-3-methyl-4-(pyrimidin-2-ylamino)-1,2,3,4-tetrahydroquinoline-6-carboxamide] | 100
CC(=O)N1c2ccc(C(=O)NCCO)cc2[C@H](Nc2ccc(C#N)cc2)[C@@H](C)[C@@H]1C1CC1 [Example 492, (2S,3R,4R)-1-acetyl-4-((4-cyanophenyl)amino)-2-cyclopropyl-N-(2-hydroxyethyl)-3-methyl-1,2,3,4-tetrahydroquinoline-6-carboxamide] | 100
CC(=O)N1c2ccc(C(=O)NC(CO)CO)cc2[C@H](Nc2ccc(C#N)cc2)[C@@H](C)[C@@H]1C1CC1 [Example 493, (2S,3R,4R)-1-acetyl-4-((4-cyanophenyl)amino)-2-cyclopropyl-N-(1,3-dihydroxypropan-2-yl)-3-methyl-1,2,3,4-tetrahydroquinoline-6-carboxamide] | 100
CC(=O)N1c2ccc(F)cc2[C@H](Nc2ncccn2)[C@@H](C)[C@@H]1C [Example 501, 1-((2S,3R,4R)-6-fluoro-2,3-dimethyl-4-(pyrimidin-2-ylamino)-3,4-dihydroquinolin-1(2H)-yl)ethanone] | 100
CC(=O)N1c2ccc(F)cc2[C@H](Nc2cccnc2C#N)[C@@H](C)[C@@H]1C1CC1 [Example 503, 3-(((2S,3R,4R)-1-acetyl-2-cyclopropyl-6-fluoro-3-methyl-1,2,3,4-tetrahydroquinolin-4-yl)amino)picolinonitrile] | 1000 to 100000
CC(=O)N1c2ccc(F)cc2[C@H](Nc2ncccc2C#N)[C@@H](C)[C@@H]1C [Example 504, 2-(((2S,3R,4R)-1-acetyl-6-fluoro-2,3-dimethyl-1,2,3,4-tetrahydroquinolin-4-yl)amino)nicotinonitrile] | 100
CNC(=O)c1ccc(N[C@H]2c3cc(F)ccc3N(C(C)=O)[C@@H](C)[C@@H]2C)cc1 [Example 506, 4-(((2S,3R,4R)-1-acetyl-6-fluoro-2,3-dimethyl-1,2,3,4-tetrahydroquinolin-4-yl)amino)-N-methylbenzamide] | 100
COc1ncccc1N[C@H]1c2cc(F)ccc2N(C(C)=O)[C@@H](C)[C@@H]1C [Example 509, 1-((2S,3R,4R)-6-fluoro-4-((2-methoxypyridin-3-yl)amino)-2,3-dimethyl-3,4-dihydroquinolin-1(2H)-yl)ethanone] | 100
CC(=O)N1c2ccc(F)cc2[C@H](Nc2ccnc(O)n2)[C@@H](C)[C@@H]1C [Example 517, 1-((2S,3R,4R)-6-fluoro-4-((2-hydroxypyrimidin-4-yl)amino)-2,3-dimethyl-3,4-dihydroquinolin-1(2H)-yl)ethanone] | 1000 to 100000
CC(=O)N1c2ccc(F)cc2[C@H](Nc2cccnc2O)[C@@H](C)[C@@H]1C [Example 518, 1-((2S,3R,4R)-6-fluoro-4-((2-hydroxypyridin-3-yl)amino)-2,3-dimethyl-3,4-dihydroquinolin-1(2H)-yl)ethanone] | 100
CC(=O)N1c2ccc(F)cc2[C@H](Nc2ccnc(O)n2)[C@@H](C)[C@@H]1C1CC1 [Example 519, 1-((2S,3R,4R)-2-cyclopropyl-6-fluoro-4-((2-hydroxypyrimidin-4-yl)amino)-3-methyl-3,4-dihydroquinolin-1(2H)-yl)ethanone] | 1000 to 100000
CC(=O)N1c2ccc(F)cc2[C@H](Nc2ccc(C(N)=O)cn2)[C@@H](C)[C@@H]1C1CC1 [Example 522, 6-(((2S,3R,4R)-1-acetyl-2-cyclopropyl-6-fluoro-3-methyl-1,2,3,4-tetrahydroquinolin-4-yl)amino)nicotinamide] | 1000 to 100000
CC(=O)N1c2ccc(F)cc2[C@H](Nc2ncccc2C(N)=O)[C@@H](C)[C@@H]1C1CC1 [Example 523, 2-(((2S,3R,4R)-1-acetyl-2-cyclopropyl-6-fluoro-3-methyl-1,2,3,4-tetrahydroquinolin-4-yl)amino)nicotinamide] | 100
CC(=O)N1c2ccc(F)cc2[C@H](Nc2ncccc2C(N)=O)[C@@H](C)[C@@H]1C [Example 527, 2-(((2S,3R,4R)-1-acetyl-6-fluoro-2,3-dimethyl-1,2,3,4-tetrahydroquinolin-4-yl)amino)nicotinamide] | 100
CC(=O)N1c2ccc(F)cc2[C@H](Nc2nc(C)ccc2C(N)=O)[C@@H](C)[C@@H]1C [Example 528, 2-(((2S,3R,4R)-1-acetyl-6-fluoro-2,3-dimethyl-1,2,3,4-tetrahydroquinolin-4-yl)amino)-6-methylnicotinamide] | 100
CC(=O)N1c2ccc(F)cc2[C@H](Nc2ccnc(O)c2)[C@@H](C)[C@@H]1C1CC1 [Example 531, 1-((2S,3R,4R)-2-cyclopropyl-6-fluoro-4-((2-hydroxypyridin-4-yl)amino)-3-methyl-3,4-dihydroquinolin-1(2H)-yl)ethanone] | 1000 to 100000
